Among the test systems are IGROV1 ovarian; K-562 leukemia; MALME-3M melanoma; MDA-MB-231 breast; MDA-MB-435; OVCAR-3 ovarian; OVCAR-8 ovarian; SK-MEL-2 melanoma; UACC-62 melanoma; UO-31 renal.
Common to all, as to test: NCI anticancer screen, dose series, 48 h

For eleven compounds, GI50 and TGI results are on record in PubChem BioAssay (NCI).

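Five compound concentrations were applied to cells in 96-well plates for 48 hours; endpoints were derived by simple linear interpolation of the resulting dose-response curve. At the GI50, growth is halved. Definition used: TGI = concentration required for complete inhibition of growth.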

Consider `COc1ccc2c(c1)OCC1c3cc(OC)ccc3OC21` (stereo not given), for which the GI50 is 49500 nM with IGROV1 ovarian; 56700 nM in the assay on K-562 leukemia; > 100000 nM in the assay with MALME-3M melanoma; 46400 nM in the assay with MDA-MB-231 breast; 50800 nM in the assay on MDA-MB-435; 44200 nM in the assay on OVCAR-3 ovarian. Besides, the GI50 was 80300 nM in the assay on OVCAR-8 ovarian, 94300 nM in the assay with SK-MEL-2 melanoma, 51000 nM in the assay on UACC-62 melanoma and 39000 nM in the assay with UO-31 renal. The TGI with IGROV1 ovarian, with K-562 leukemia, in the assay with MALME-3M melanoma, in the assay with MDA-MB-231 breast, in the assay with MDA-MB-435 and in the assay with OVCAR-3 ovarian was > 100000 nM in each case. Further, the TGI in the assay with OVCAR-8 ovarian, with SK-MEL-2 melanoma, in the assay with UACC-62 melanoma and with UO-31 renal was > 100000 nM each time.
As for `NC1=Nc2cc(OCCCCN3Cc4ccccc4C3)c(OCC3CC3)cc2C12CCCC2`, the GI50 in the assay with IGROV1 ovarian is 1420 nM; with K-562 leukemia it was 398 nM; in the assay on MALME-3M melanoma, 1630 nM; in the assay on MDA-MB-231 breast it was 1550 nM; in the assay on MDA-MB-435 it was 1590 nM; in the assay with OVCAR-3 ovarian, 1490 nM. The GI50 with OVCAR-8 ovarian was 1800 nM; with SK-MEL-2 melanoma it was 1840 nM; in the assay on UACC-62 melanoma, 1690 nM; in the assay on UO-31 renal, 1460 nM. The TGI turned out to be 2980 nM in the assay on IGROV1 ovarian; 1730 nM in the assay with K-562 leukemia; 3120 nM in the assay on MALME-3M melanoma; 3020 nM with MDA-MB-231 breast; 2990 nM with MDA-MB-435; 3160 nM in the assay with OVCAR-3 ovarian. Moreover, the TGI with OVCAR-8 ovarian was found to be 4020 nM; in the assay with SK-MEL-2 melanoma it was 3490 nM; in the assay with UACC-62 melanoma, 3110 nM; in the assay with UO-31 renal, 2880 nM.
Turning to `CCCCCCCCCCCCNC(=O)N[C@H](C(=O)N[C@H]1/C=C/OCCNC(=O)/C=C/[C@H](C(C)C)NC1=O)C(C)C`, the GI50 in the assay on IGROV1 ovarian is 2120 nM; with K-562 leukemia it was 9150 nM; in the assay on MALME-3M melanoma, 39300 nM; in the assay with MDA-MB-231 breast, 11700 nM; in the assay with MDA-MB-435 it was 1480 nM; in the assay on OVCAR-3 ovarian, 568 nM. The GI50 is 13700 nM with OVCAR-8 ovarian, 4000 nM in the assay on SK-MEL-2 melanoma, 3100 nM with UACC-62 melanoma and > 100000 nM in the assay with UO-31 renal. Moreover, the TGI was > 100000 nM in the assay on IGROV1 ovarian; > 100000 nM in the assay with K-562 leukemia; > 100000 nM with MALME-3M melanoma; 49300 nM in the assay with MDA-MB-231 breast; > 100000 nM with MDA-MB-435; > 78700 nM in the assay with OVCAR-3 ovarian. Besides, the TGI is 34100 nM in the assay on OVCAR-8 ovarian, > 59200 nM in the assay with SK-MEL-2 melanoma, 39000 nM with UACC-62 melanoma and > 100000 nM in the assay on UO-31 renal.
As to `Cc1n[nH]c(C)c1-c1c(C)n[nH]c1C`, the GI50 is 1800 nM with IGROV1 ovarian; 1940 nM with K-562 leukemia; 1700 nM in the assay with MALME-3M melanoma; 1830 nM in the assay with MDA-MB-231 breast; 1930 nM in the assay with MDA-MB-435; 1600 nM in the assay on OVCAR-3 ovarian. For the same compound, the GI50 in the assay on OVCAR-8 ovarian is 2090 nM; with SK-MEL-2 melanoma it was 2320 nM; with UACC-62 melanoma, 1560 nM; in the assay with UO-31 renal it was 1310 nM. For the same compound, the TGI was 4300 nM in the assay on IGROV1 ovarian; > 35600 nM in the assay on K-562 leukemia; 4050 nM with MALME-3M melanoma; 4530 nM in the assay on MDA-MB-231 breast; 4820 nM in the assay with MDA-MB-435; 3050 nM in the assay with OVCAR-3 ovarian. Besides, the TGI worked out at 9790 nM in the assay with OVCAR-8 ovarian, 5510 nM in the assay on SK-MEL-2 melanoma, 3420 nM in the assay with UACC-62 melanoma and 2700 nM in the assay with UO-31 renal.
`CC1SC(c2ccc(OCc3ccccc3)cc2)N(NC(=O)C(O)(c2ccccc2)c2ccccc2)C1=O` (stereo not given): the GI50 in the assay on IGROV1 ovarian is 2400 nM; in the assay with K-562 leukemia, 3360 nM; in the assay with MALME-3M melanoma it was 2150 nM; in the assay with MDA-MB-231 breast, 4310 nM; in the assay on MDA-MB-435 it was 3520 nM; in the assay with OVCAR-3 ovarian, 2360 nM. The GI50 in the assay on OVCAR-8 ovarian was 12700 nM; in the assay on SK-MEL-2 melanoma it was 4360 nM; in the assay on UACC-62 melanoma it was 3690 nM; in the assay with UO-31 renal, 3740 nM. For the same compound, the TGI with IGROV1 ovarian is 11500 nM; in the assay with K-562 leukemia, > 100000 nM; with MALME-3M melanoma, 10500 nM; in the assay on MDA-MB-231 breast, 15500 nM; with MDA-MB-435 it was 13800 nM; in the assay on OVCAR-3 ovarian, 6100 nM. Further, the TGI with OVCAR-8 ovarian was found to be 38600 nM; in the assay on SK-MEL-2 melanoma, 18800 nM; with UACC-62 melanoma, 16000 nM; with UO-31 renal, 21300 nM.
Consider `CC(C)OC(=O)OCOP(=O)(OCOC(=O)OC(C)C)C1CCCN(O)C1=O` (stereo not given), for which the GI50 with IGROV1 ovarian was 565 nM; in the assay on K-562 leukemia, 810 nM; in the assay with MALME-3M melanoma it was 856 nM; with MDA-MB-231 breast it was 632 nM; in the assay with MDA-MB-435, 5290 nM; in the assay on OVCAR-3 ovarian it was 1470 nM. For the same compound, the GI50 with OVCAR-8 ovarian is 619 nM; in the assay on SK-MEL-2 melanoma, 3100 nM; in the assay with UACC-62 melanoma, 704 nM; in the assay with UO-31 renal it was 197 nM. The TGI with IGROV1 ovarian is 12600 nM; in the assay on K-562 leukemia, > 100000 nM; with MALME-3M melanoma, > 100000 nM; in the assay with MDA-MB-231 breast, > 100000 nM; with MDA-MB-435, > 100000 nM; in the assay with OVCAR-3 ovarian, > 100000 nM. The TGI with OVCAR-8 ovarian is > 100000 nM; in the assay on SK-MEL-2 melanoma it was 20400 nM; in the assay on UACC-62 melanoma, 3290 nM; in the assay with UO-31 renal, 68100 nM.
For the compound `COc1cnc2c(c1)C(=O)c1c-2n(CCCN2CCNCC2)c(=O)c2cc(F)ccc12`, the GI50 with IGROV1 ovarian was 478 nM; with K-562 leukemia, 148 nM; in the assay on MALME-3M melanoma, 1130 nM; with MDA-MB-231 breast, 479 nM; in the assay on MDA-MB-435 it was 578 nM; in the assay on OVCAR-3 ovarian, 335 nM. Further, the GI50 was 126 nM with OVCAR-8 ovarian, 1710 nM with SK-MEL-2 melanoma, 1260 nM in the assay on UACC-62 melanoma and 133 nM with UO-31 renal. In addition, the TGI is 2340 nM with IGROV1 ovarian; 1440 nM with K-562 leukemia; 2560 nM in the assay on MALME-3M melanoma; 1940 nM in the assay with MDA-MB-231 breast; 2010 nM with MDA-MB-435; 1630 nM in the assay on OVCAR-3 ovarian. Besides, the TGI is 1250 nM in the assay on OVCAR-8 ovarian, 3370 nM in the assay on SK-MEL-2 melanoma, 3020 nM in the assay on UACC-62 melanoma and 1120 nM with UO-31 renal.
As to `CN(C)c1ccc(-c2cc(-c3cccc(NS(C)(=O)=O)c3)nc(N)c2C#N)cc1`, the GI50 in the assay on IGROV1 ovarian was 62.4 nM; in the assay on K-562 leukemia, 37.2 nM; in the assay with MALME-3M melanoma, 948 nM; in the assay with MDA-MB-231 breast, 110 nM; in the assay with MDA-MB-435 it was 12.2 nM; in the assay with OVCAR-3 ovarian, 22.6 nM. In addition, the GI50 with OVCAR-8 ovarian is 51.5 nM; in the assay with SK-MEL-2 melanoma, 44.9 nM; in the assay with UACC-62 melanoma, 35.7 nM; with UO-31 renal, 56.2 nM. Further, the TGI with IGROV1 ovarian amounted to 30800 nM; in the assay on K-562 leukemia, 48500 nM; in the assay on MALME-3M melanoma, 47900 nM; in the assay on MDA-MB-231 breast, 1520 nM; with MDA-MB-435, 35 nM; in the assay on OVCAR-3 ovarian, 56.8 nM. Further, the TGI was > 87800 nM in the assay with OVCAR-8 ovarian, 21800 nM in the assay on SK-MEL-2 melanoma, 19800 nM with UACC-62 melanoma and 45000 nM in the assay with UO-31 renal.
`CS(=O)c1cc(=O)c2ccccc2s1` (stereo not given): the TGI in the assay with IGROV1 ovarian is 34200 nM; in the assay on K-562 leukemia, 7570 nM; in the assay on MALME-3M melanoma it was 4530 nM; in the assay on MDA-MB-231 breast it was 32800 nM; in the assay with MDA-MB-435, 19000 nM; in the assay with OVCAR-3 ovarian, 4470 nM. Moreover, the TGI is 8090 nM in the assay on OVCAR-8 ovarian, 24700 nM in the assay with SK-MEL-2 melanoma, 17600 nM in the assay on UACC-62 melanoma and 22300 nM with UO-31 renal.
Turning to `N#CSc1c[nH]c2cccc(/C=C/C(=O)/C=C(O)/C=C/c3cccc4[nH]cc(SC#N)c34)c12`, the GI50 was 460 nM with IGROV1 ovarian; 148 nM with K-562 leukemia; 520 nM with MALME-3M melanoma; 553 nM in the assay with MDA-MB-231 breast; 542 nM in the assay with MDA-MB-435; 225 nM in the assay with OVCAR-3 ovarian. Moreover, the GI50 in the assay on OVCAR-8 ovarian was 369 nM; in the assay on SK-MEL-2 melanoma, 829 nM; with UACC-62 melanoma it was 400 nM; in the assay on UO-31 renal it was 197 nM. Moreover, the TGI is 1580 nM in the assay with IGROV1 ovarian; > 33300 nM in the assay with K-562 leukemia; 1070 nM in the assay with MALME-3M melanoma; 1210 nM with MDA-MB-231 breast; 1420 nM with MDA-MB-435; 1090 nM with OVCAR-3 ovarian. Also, the TGI in the assay with OVCAR-8 ovarian is > 17500 nM; in the assay on SK-MEL-2 melanoma it was 1930 nM; with UACC-62 melanoma, 1630 nM; in the assay with UO-31 renal, 652 nM.
As for `CCOc1ccc(-c2nc3ccc(-c4nc5ccc(N6CCN(C)CC6)cc5[nH]4)cc3[nH]2)cc1OCC`, the GI50 in the assay with IGROV1 ovarian is 1940 nM; with K-562 leukemia it was 778 nM; in the assay with MALME-3M melanoma, 222 nM; in the assay with MDA-MB-231 breast, 2250 nM; in the assay on MDA-MB-435, 1010 nM; in the assay on OVCAR-3 ovarian, 648 nM. The GI50 was 2660 nM in the assay on OVCAR-8 ovarian, 1490 nM in the assay on SK-MEL-2 melanoma, 643 nM with UACC-62 melanoma and 12400 nM in the assay on UO-31 renal. The TGI in the assay on IGROV1 ovarian stood at 6200 nM; in the assay with K-562 leukemia it was 9010 nM; with MALME-3M melanoma, 1230 nM; in the assay on MDA-MB-231 breast, 7090 nM; with MDA-MB-435 it was 2380 nM; in the assay with OVCAR-3 ovarian, 2630 nM. Moreover, the TGI with OVCAR-8 ovarian worked out at 14500 nM; with SK-MEL-2 melanoma, 3270 nM; with UACC-62 melanoma, 2580 nM; in the assay with UO-31 renal it was 35900 nM.
